Test results reported in patent US20140050670A1, “MULTIFUNCTIONAL NANOPARTICLES” (THE UNIVERSITY OF WESTERN AUSTRALIA, priority 2010, published 2014).

Columns and labels:
[1] = tested on: PC12 cells; experiment: Intracellular calcium quantification after glutamate challenge (Fura-2); type: cell-based, rat; details: glutamate 10 mM, 24 hr; nanospheres 25 μg mL^−1, free lomerizine 1 μM; relative to ENP; dihydrochloride
Source text: The pH in early endosomes is mildly acidic and falls below 5 as endosomes mature, so release of lomerizine from nanospheres could be triggered under these conditions. Here, we administered lomerizine to PC12 cells using nanospheres, and measured intracellular calcium concentrations after glutamate challenge to see if intracellular release of lomerizine could be employed for neuroprotection. PC12 cells express both N- and L-type VGCCs, but not T-type channels, and in undifferentiated PC12 cells, glutamate exposure (1-10 mm) over 24 hr causes oxidative stress and increased [Ca^2+]i.
Cells receiving nanosphere treatments were incubated with nanospheres containing lomerizine, with or without modification with PEI (LNP+PEI and LNP−PEI respectively), or nanospheres containing no lomerizine but with PEI modification (ENP). […]
For experiments, cells were seeded in 24-well plates containing 10 mm glass coverslips coated with poly(l-lysine) at a cell density of 5.0×10^4 mL^−1. […] After a further 24 hr, [Ca^2+]i was quantified as follows. […] Fluorescent data were measured on a Hamamatsu Orca ER digital camera attached to an inverted Nikon TE2000-U microscope, and analysed using Metamorph v6.3. […] [Ca^2+]i was calculated according to the equation: […]

[2] = humans; cited from earlier work
[3] = rats, 24 hr after oral administration; cited from earlier work
[4] = tested on: L-, T- and N-type Ca^2+ channels; details: cited from earlier work
[5] = tested on: NMDA, kainate or AMPA binding sites; details: cited from earlier work

SMILES: COc1ccc(CN2CCN(C(c3ccc(F)cc3)c3ccc(F)cc3)CC2)c(OC)c1OC.Cl.Cl [Lomerizine, 1-[bis(4-fluorophenyl)methyl]-4-(2,3,4-trimethoxybenzyl)piperazine dihydrochloride]
- intracellular calcium [Ca^2+]i after glutamate [1]: significant (p≦0.001) decrease
- elimination half-life [2]: 108 h
- dose excreted in the feces [3]: 51.7%
- dose excreted in urine [3]: 4.1%
- calcium channel blockade selectivity [4]: selectively blocks L- and T-type Ca^2+ channels, but not N-type channels
- affinity for NMDA, kainate or AMPA binding sites [5]: no reported affinity
